Experiments:
[1] = molecular target: BCL-2 (Homo sapiens (Human), UniProt P10415); experiment: BCL-2 TR-FRET Assay (primary PPI inhibition); type: binding; settings: 60 min incubation, read-out: BCL2 IC50
Procedure: Example A. BCL-2 TR-FRET Assay (BPS Bioscience, #50222)
(§1) The following assay concentrations and times were used: 3 ng of BCL-2, 5 μL of 1:100 anti-His Tb-labeled donor, 5 μL of 1:100 Dye-labeled acceptor, 5 µL of 1:40 BCL-2 Peptide Ligand, and 2 μL of 200× test compound, with 60 min incubation time (final concentration of DMSO 0.5%). The results of the assay were read using a plate reader with the following parameters: TR FRET, 340ex/620 and 665em; 60 usec Delay; and 500 usec integration.
(§2) Instrumentation: CLARIOstar Plus (BMG LABTECH); Biomek FX for liquid handling (Beckman Coulter).

[2] = molecular target: BCL-xL (Homo sapiens (Human), UniProt Q07817); experiment: BCL-xL TR-FRET Assay (primary PPI inhibition); type: binding; settings: 60 min incubation, read-out: BCLxL IC50
Procedure: Example B. BCL-xL TR-FRET Assay (BPS Bioscience, #50223)
as §1, with “used: 10.5” for “used: 3”, “of BCL-xL,” for “of BCL-2,”, “of 1:120” for “of 1:100”, “5 μL” for “5 µL”, “of 1:96 BCL-xL” for “of 1:40 BCL-2”, “Ligand,” for “Ligand, and”
as §2

Sequence of BCL-xL (Q07817 whole entry): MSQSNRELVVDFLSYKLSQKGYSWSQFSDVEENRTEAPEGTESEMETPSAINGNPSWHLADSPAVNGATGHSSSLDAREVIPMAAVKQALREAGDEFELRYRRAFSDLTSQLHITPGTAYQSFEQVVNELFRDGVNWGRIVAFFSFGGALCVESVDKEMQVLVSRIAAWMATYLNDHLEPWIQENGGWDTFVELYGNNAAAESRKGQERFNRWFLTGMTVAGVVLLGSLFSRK
Sequence of BCL-2 (P10415 whole entry): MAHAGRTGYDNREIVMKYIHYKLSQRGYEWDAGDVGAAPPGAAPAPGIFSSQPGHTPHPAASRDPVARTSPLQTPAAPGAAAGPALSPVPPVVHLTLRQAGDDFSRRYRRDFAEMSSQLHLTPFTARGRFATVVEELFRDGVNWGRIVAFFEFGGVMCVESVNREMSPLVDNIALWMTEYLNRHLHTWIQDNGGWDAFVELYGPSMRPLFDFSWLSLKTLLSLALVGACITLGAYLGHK

Compound | IC50 [1] | IC50 [2]
COc1cc(-c2cc(C(=O)N(Cc3ccccc3C#N)c3ccc(Cl)cc3)c(C)n2C)c(C(=O)N2Cc3ccccc3C[C@H]2CN2CCOCC2)cc1C#N [Compound 59, N-(4-chlorophenyl)-5-[4-cyano-5-methoxy-2-[(3S)-3-(morpholinomethyl)-3,4-dihydro-1H-isoquinoline-2-carbonyl]phenyl]-N-[(2-cyanophenyl)methyl]-1,2-dimethyl-pyrrole-3-carboxamide] | > 50 nM | 2000 to 5000 nM
COc1cccc(CN(C(=O)c2cc(-c3c(C)cc(Cl)cc3C(=O)N3Cc4ccccc4C[C@H]3CN3CCOCC3)n(C)c2C)c2ccc(O)cc2)c1C [Compound 50, 5-[4-chloro-2-methyl-6-[(3S)-3-(morpholinomethyl)-3,4-dihydro-1H-isoquinoline-2-carbonyl]phenyl]-N-(4-hydroxyphenyl)-N-[(3-methoxy-2-methyl-phenyl)methyl]-1,2-dimethyl-pyrrole-3-carboxamide] | > 50 nM | 2000 to 5000 nM
Cc1c(C(=O)N(Cc2ccccc2C#N)c2ccc3cn[nH]c3c2)cc(-c2cc([N+](=O)[O-])ccc2C(=O)N2Cc3ccccc3C[C@H]2CN2CCOCC2)n1C [Compound 66, N-[(2-cyanophenyl)methyl]-N-(1H-indazol-6-yl)-1,2-dimethyl-5-[2-[(3S)-3-(morpholinomethyl)-3,4-dihydro-1H-isoquinoline-2-carbonyl]-5-nitro-phenyl]pyrrole-3-carboxamide] | > 50 nM | > 5000 nM
COc1cccc(CN(C(=O)c2cc(-c3cc([N+](=O)[O-])ccc3C(=O)N3Cc4ccccc4C[C@H]3CN3CCOCC3)n(C)c2C)c2ccc3cn[nH]c3c2)c1C [Compound 67, N-(1H-indazol-6-yl)-N-[(3-methoxy-2-methyl-phenyl)methyl]-1,2-dimethyl-5-[2-[(3S)-3-(morpholinomethyl)-3,4-dihydro-1H-isoquinoline-2-carbonyl]-5-nitro-phenyl]pyrrole-3-carboxamide] | > 50 nM | > 5000 nM
COc1cc(-c2cc(C(=O)N(Cc3cccc(OC)c3C)c3ccc(Cl)cc3)c(C)n2C)c(C(=O)N2Cc3ccccc3C[C@H]2CN2CCOCC2)cc1C#N [Compound 60, N-(4-chlorophenyl)-5-[4-cyano-5-methoxy-2-[(3S)-3-(morpholinomethyl)-3,4-dihydro-1H-isoquinoline-2-carbonyl]phenyl]-N-[(3-methoxy-2-methyl-phenyl)methyl]-1,2-dimethyl-pyrrole-3-carboxamide] | > 50 nM | 2000 to 5000 nM
COc1cccc(CN(C(=O)c2cc(-c3cc(Cl)ccc3C(=O)N3Cc4ccccc4C[C@H]3CN3CCOCC3)n(C)c2C)c2ccc(C#N)cc2)c1C [Compound 33, 5-[5-chloro-2-[(3S)-3-(morpholinomethyl)-3,4-dihydro-1H-isoquinoline-2-carbonyl]phenyl]-N-(4-cyanophenyl)-N-[(3-methoxy-2-methyl-phenyl)methyl]-1,2-dimethyl-pyrrole-3-carboxamide] | > 50 nM | 2000 to 5000 nM
COc1cccc(CN(C(=O)c2cc(-c3cc(F)c(OC(F)F)cc3C(=O)N3Cc4ccccc4C[C@H]3CN3CCOCC3)n(C)c2C)c2ccc(C#N)cc2)c1C [Compound 44, N-(4-cyanophenyl)-5-[4-(difluoromethoxy)-5-fluoro-2-[(3S)-3-(morpholinomethyl)-3,4-dihydro-1H-isoquinoline-2-carbonyl]phenyl]-N-[(3-methoxy-2-methyl-phenyl)methyl]-1,2-dimethyl-pyrrole-3-carboxamide] | > 50 nM | 2000 to 5000 nM
COc1cccc(CN(C(=O)c2cc(-c3cc(Cl)c(OC(F)F)cc3C(=O)N3Cc4ccccc4C[C@H]3CN3CCOCC3)n(C)c2C)c2ccc(C#N)cc2)c1C [Compound 40, 5-[5-chloro-4-(difluoromethoxy)-2-[(3S)-3-(morpholinomethyl)-3,4-dihydro-1H-isoquinoline-2-carbonyl]phenyl]-N-(4-cyanophenyl)-N-[(3-methoxy-2-methyl-phenyl)methyl]-1,2-dimethyl-pyrrole-3-carboxamide] | > 50 nM | 2000 to 5000 nM
